Data published in patent US4672036A, “Pure cultures of Kibdelsporangium aridum Shearer gen. nov., sp. nov. ATCC 39323 and mutants thereof” (SmithKline Beckman Corporation, priority 1985, dated 1987).
Values after ≈ are worked out from the molar mass of the structure shown. Values joined by “and” are separate entries in the source; they are usually repeats but may differ in a detail not shown here. Equal values may be shown once.

Columns and labels:
Strep. faecilis HH34358 = assay type: cell-based; settings: Table A
[1] = system: Proteus mirabilis SK & F 444; assay type: cell-based; settings: Table A
[2] = system: E. coli 12140 (SK & F 809); assay type: cell-based; settings: Table A
[3] = system: Kleb. pneumoniae 4200 (SK & F 798); assay type: cell-based; settings: Table A
[4] = system: Pseudomonas aeruginosa HH63; assay type: cell-based; settings: Table A
[5] = system: Serratia marcesens ATCC 13880; assay type: cell-based; settings: Table A
[6] = system: Proteus morgani SK & F 179; assay type: cell-based; settings: Table A
Providencia SK & F 276 = assay type: cell-based; settings: Table A
[7] = system: Enterobacter cloacae HH31254; assay type: cell-based; settings: Table A
[8] = system: Listeria monocytogenes SK & F 2255; assay type: cell-based; settings: Table A
[9] = system: Staph. aureus SK & F 2613; assay type: cell-based; settings: Table B, Methicillin Sensitive
[10] = system: Bacteroides fragilis ATCC 25285; assay type: cell-based; settings: Table D, Anaerobes
B. fragilis H145 = assay type: cell-based, Bacteroides fragilis; settings: Table D, Anaerobes
B. fragilis SK & F 3060 = assay type: cell-based, Bacteroides fragilis; settings: Table D, Anaerobes
B. loeochii SK & F 3087 = assay type: cell-based; settings: Table D, Anaerobes
[11] = system: B. thetaiotamicron SK & F 3089; assay type: cell-based; settings: Table D, Anaerobes
[12] = system: Fusobacterium nucleatum ATCC 25586; assay type: cell-based; settings: Table D, Anaerobes
Swine in vitro model = test: swine in vitro model (growth promotant activity)
rumen in vitro model [13] = test: rumen in vitro model (growth promotant activity); design: species or system steer
Method: The protocol for the rumen in vitro model is analogous to the protocol for the swine in vitro model with the following modifications:
(1) A 400 kg steer is surgically prepared with a rumen cannula.
(2) The animal is fed one time a day with the following ration:
(3) Manipulation of VFA production is described as the production ratio of propionate as a percentage of total VFA produced.
(4) Sampling of the material, via the cannula, is at 120 minutes post feeding.

solubility = assay type: physicochemical
[14] = system: Salmonella gallinarum BC595; settings: Table A
[15] = system: Clostridium perfringens MCP-1; settings: Table D, Anaerobes
C. perfringens MCP-2 = settings: Table D, Anaerobes
[16] = system: C. perfringens ATCC 19408; settings: Table D, Anaerobes
rumen in vitro model [17] = test: rumen in vitro model (growth promotant activity); design: species or system steer; remark: listed apart in the source

## CN[C@H]1C(=O)N[C@H]2C(=O)N[C@H](C(=O)N[C@H]3C(=O)N[C@H]4C(=O)N[C@H](C(=O)N[C@H](C(=O)O)c5cc(O)cc(O[C@H]6O[C@H](CO)[C@@H](O)[C@H](O)[C@@H]6O)c5-c5cc4ccc5O)[C@H](O)c4cc(Cl)c(c(Cl)c4)Oc4cc3cc(c4O[C@@H]3O[C@H](C(=O)O)[C@@H](O)[C@H](O)[C@H]3NC(=O)CCCCCCCC(C)C)Oc3ccc(cc3Cl)[C@H]2O)c2cc(cc(O)c2Cl)Oc2cc1ccc2O [AAD 216B]
Strep. faecilis HH34358
  MIC: 0.4 µg/mL (≈ 0.222 µM)
[1]
  MIC: > 100 µg/mL
[2]
  MIC: > 100 µg/mL
[3]
  MIC: > 100 µg/mL
[4]
  MIC: > 100 µg/mL
[5]
  MIC: > 100 µg/mL
[6]
  MIC: > 100 µg/mL
Providencia SK & F 276
  MIC: > 100 µg/mL
[7]
  MIC: > 100 µg/mL
[8]
  MIC: 0.4 µg/mL (≈ 0.222 µM)
[9]
  MIC: 1.6 µg/mL (≈ 0.887 µM)
[10]
  MIC: 32 µg/mL (≈ 17.7 µM)
B. fragilis H145
  MIC: 16 µg/mL (≈ 8.87 µM)
B. fragilis SK & F 3060
  MIC: 16 µg/mL (≈ 8.87 µM)
B. loeochii SK & F 3087
  MIC: 16 µg/mL (≈ 8.87 µM)
[11]
  MIC: 32 µg/mL (≈ 17.7 µM)
[12]
  MIC: 32 µg/mL (≈ 17.7 µM)
Swine in vitro model
  GLU (glucose): 190 % Control and 184 % Control and 97 % Control
  LYS (lysine): 50 % Control and 55 % Control
Rumen in vitro model [13]
  VFA (total of volatile fatty acids): 111 % Control and 121 % Control
solubility; H2O, methanol, dimethylsulfoxide, dimethylformamide
  solubility: soluble
solubility; ethanol, acetonitrile, acetone, diethylether, aliphatic hydrocarbons
  solubility: insoluble
[14]
  MIC: > 100 µg/mL
[15]
  MIC: 0.125 µg/mL (≈ 0.0693 µM)
C. perfringens MCP-2
  MIC: 0.125 µg/mL (≈ 0.0693 µM)
[16]
  MIC: 0.125 µg/mL (≈ 0.0693 µM)
Rumen in vitro model [17]
  LYS (lysine): 124 % Control and 107 % Control and 103 % Control
